Where “and” joins values, the source holds several entries; their conditions need not be identical. Equal values may be shown once. Inconclusive results and toxic doses are left out.
Tested on: L1210 leukemia ip in BDF1 mice, survival T/C
Assay: NCI In Vivo Anticancer Drug Screen. Data for tumor model L1210 Leukemia (intraperitoneal) in B6D2F1 (BDF1) mice
Conditions: endpoint: mean survival time, higher = longer survival
How it was run: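 In this screen, tumor-bearing mice given compound are compared to those given vehicle, and their survival values are reported as a treated-to-control quotient.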

[1] = dose: 100.0 mg/kg/injection, schedule: Q01DX009 (ip), vehicle: Klucel (hydroxypropylcellulose) (HPC)
[2] = dose: 100.0 mg/kg/injection, schedule: Q04DX003 (ip), vehicle: Klucel (hydroxypropylcellulose) (HPC)
[3] = dose: 200.0 mg/kg/injection, schedule: Q01DX009 (ip), vehicle: Klucel (hydroxypropylcellulose) (HPC)
[4] = dose: 200.0 mg/kg/injection, schedule: Q04DX003 (ip), vehicle: Klucel (hydroxypropylcellulose) (HPC)
[5] = dose: 50.0 mg/kg/injection, schedule: Q01DX009 (ip), vehicle: Klucel (hydroxypropylcellulose) (HPC)

Structure (SMILES): Cc1ccc(OS(=O)(=O)c2ccc([N+](=O)[O-])cc2)cc1
- T/C [1]: 97 % of control
- T/C [2]: 97 % of control
- T/C [3]: 96 % of control
- T/C [4]: 101 % of control
- T/C (dose: 400.0 mg/kg/injection, schedule: Q01DX009 (ip), vehicle: Klucel (hydroxypropylcellulose) (HPC)): 95 % of control
- T/C (dose: 400.0 mg/kg/injection, schedule: Q04DX003 (ip), vehicle: Klucel (hydroxypropylcellulose) (HPC)): 100 % of control

Structure (SMILES): CC(=O)NC1=C(N2CC2C)C(=O)C(NC(C)=O)=C(N2CC2C)C1=O (stereo not given)
- T/C (dose: 0.25 mg/kg/injection, schedule: Q01DX009 (ip), vehicle: saline): 109 % of control
- T/C (dose: 0.31 mg/kg/injection, schedule: Q01DX Z (ip), vehicle: saline): 103 % of control
- T/C (dose: 0.5 mg/kg/injection, schedule: Q01DX009 (ip), vehicle: saline): 103 % of control
- T/C (dose: 0.63 mg/kg/injection, schedule: Q01DX Z (ip), vehicle: saline): 103 % of control
- T/C (dose: 1.0 mg/kg/injection, schedule: Q01DX009 (ip), vehicle: saline): 114 % of control
- T/C (dose: 1.25 mg/kg/injection, schedule: Q01DX Z (ip), vehicle: saline): 106 % of control
- T/C (dose: 2.0 mg/kg/injection, schedule: Q01DX009 (ip), vehicle: saline): 120 % of control
- T/C (dose: 2.5 mg/kg/injection, schedule: Q01DX009 (ip), vehicle: saline): 184 % of control
- T/C (dose: 5.0 mg/kg/injection, schedule: Q01DX001 (ip), vehicle: saline): 118 % of control
- T/C (dose: 5.0 mg/kg/injection, schedule: Q01DX009 (ip), vehicle: saline): 108 % of control
- T/C (dose: 10.0 mg/kg/injection, schedule: Q01DX001 (ip), vehicle: saline): 171 % of control
- T/C (dose: 10.0 mg/kg/injection, schedule: Q01DX Z (ip), vehicle: saline): 96 % of control and 111 % of control
- T/C (dose: 20.0 mg/kg/injection, schedule: Q01DX001 (ip), vehicle: saline): 118 % of control
- T/C (dose: 20.0 mg/kg/injection, schedule: Q01DX009 (ip), vehicle: saline): 111 % of control
- T/C (dose: 20.0 mg/kg/injection, schedule: Q01DX Z (ip), vehicle: saline): 103 % of control
- T/C (dose: 40.0 mg/kg/injection, schedule: Q01DX Z (ip), vehicle: saline): 178 % of control
- T/C (dose: 50.0 mg/kg/injection, schedule: Q01DX009 (ip), vehicle: saline): 100 % of control
- T/C (dose: 75.0 mg/kg/injection, schedule: Q01DX001 (ip), vehicle: saline): 186 % of control
- T/C (dose: 75.0 mg/kg/injection, schedule: Q01DX009 (ip), vehicle: saline): 92 % of control
- T/C (dose: 150.0 mg/kg/injection, schedule: Q01DX001 (ip), vehicle: saline): 112 % of control

Structure (SMILES): O=C(O)c1ccc(Nc2c3ccccc3nc3ccccc23)cc1
- T/C [5]: 177 % of control
- T/C [1]: 243 % of control

Structure (SMILES): CC(=O)SCCCON1C(=O)c2ccccc2C1=O
- T/C (dose: 50.0 mg/kg/injection, schedule: Q01DX001 (ip), vehicle: saline): 100 % of control
- T/C (dose: 100.0 mg/kg/injection, schedule: Q01DX001 (ip), vehicle: saline): 96 % of control
- T/C (dose: 200.0 mg/kg/injection, schedule: Q01DX001 (ip), vehicle: saline): 102 % of control
- T/C (dose: 400.0 mg/kg/injection, schedule: Q01DX001 (ip), vehicle: saline): 102 % of control

Structure (SMILES): O=C(Oc1ccc(Cl)cc1Cl)Oc1ccc(Cl)cc1Cl
- T/C (dose: 50.0 mg/kg/injection, schedule: Q01DX001 (ip), vehicle: carboxymethylcellulose (CMC)): 98 % of control
- T/C [5]: 105 % of control
- T/C (dose: 50.0 mg/kg/injection, schedule: Q04DX003 (ip), vehicle: Klucel (hydroxypropylcellulose) (HPC)): 98 % of control
- T/C (dose: 100.0 mg/kg/injection, schedule: Q01DX001 (ip), vehicle: carboxymethylcellulose (CMC)): 104 % of control
- T/C [1]: 100 % of control
- T/C [2]: 95 % of control
- T/C (dose: 200.0 mg/kg/injection, schedule: Q01DX001 (ip), vehicle: carboxymethylcellulose (CMC)): 104 % of control
- T/C [3]: 103 % of control
- T/C [4]: 106 % of control
- T/C (dose: 400.0 mg/kg/injection, schedule: Q01DX001 (ip), vehicle: carboxymethylcellulose (CMC)): 93 % of control

Structure (SMILES): OC(Cc1[nH]c2ccccc2c1C(O)(C(F)(F)F)C(F)(F)F)(C(F)(F)F)C(F)(F)F
- T/C (dose: 100.0 mg/kg/injection, schedule: Q04DX003 (ip), vehicle: other): 109 % of control
- T/C (dose: 200.0 mg/kg/injection, schedule: Q04DX003 (ip), vehicle: other): 109 % of control
- T/C (dose: 400.0 mg/kg/injection, schedule: Q04DX003 (ip), vehicle: other): 98 % of control

— PubChem BioAssay AID248 (DTP/NCI, 2004)
